In one series the test system is U2OS. The series can be described thus: Cellular toxicity of mRNA-LNP, CellTiterGlo 2.0 viability. It is filed as cell-based, human. As to conditions: total lipid 100 μM (context of the sentence). As to the method: A human cell line derived from embryonic kidney cells (HEK293), the same line expressing SV40 large T antigen (HEK293T), human osteosarcoma-derived cell line (U2OS), and human hepatocyte carcinoma cell line (HepG2) were cultured in 96-well plates (5×10^4 cells in 100 μl of culture medium per well) in Dulbecco's modified medium (DMEM) or in IMDM medium (Iscove's Modified Dulbecco's medium) supplemented with 10% foetal bovine serum (FBS) at 37° C. in 5% CO2. Cells were transfected with 2 μl of mRNA-LNPs generated in triplicates in Example 25 (the final total concentration of all lipid components in the well was 20 μM) or 10 μl of mRNA-LNPs (the final total concentration of all lipid components in the well was 100 μM) and subsequently incubated for 24 hours. The cytotoxicity of LNPs was analysed in a CellTiterGlo 2.0 cell viability assay (Promega, USA). Cell viability was normalized to non-transfected cells (control).

A further series addresses STING protein (Homo sapiens, UniProt Q86WV6, H232R). The series can be described thus: STING activation reporter assay (ISRE luciferase, HEK293T) with cGAMP-LNPs. The conditions noted are these: read-out: EC50 STING activation; 2′,3′-cGAMP transfected with cGAMP-LNPs.

This note sets out measurements from patent publication US12559450B2, “Lipidoids for nucleic acid transfection and use thereof” (Ustav Organicke Chemie a Biochemie AV CR, v.v.i., priority 2020, dated 2026).

Sequence of STING protein (Q86WV6 whole entry H232R): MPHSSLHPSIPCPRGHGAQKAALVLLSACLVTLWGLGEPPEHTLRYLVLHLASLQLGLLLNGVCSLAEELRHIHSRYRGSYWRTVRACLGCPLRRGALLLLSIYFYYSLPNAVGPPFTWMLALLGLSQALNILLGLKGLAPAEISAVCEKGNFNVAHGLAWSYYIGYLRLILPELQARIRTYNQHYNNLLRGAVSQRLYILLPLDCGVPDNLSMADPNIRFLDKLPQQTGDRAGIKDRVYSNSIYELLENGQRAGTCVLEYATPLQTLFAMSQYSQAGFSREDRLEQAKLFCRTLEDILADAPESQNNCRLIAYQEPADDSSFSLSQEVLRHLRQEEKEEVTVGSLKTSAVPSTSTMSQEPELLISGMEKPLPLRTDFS
Method for STING protein: Cells were transferred to poly-D-lysine (Sigma-Aldrich)-coated 96-well plates (Greiner Bio-One) at a density of 2.5×10^4 in DMEM medium containing glucose (containing L-glutamine; Biowest) supplemented with 10% FBS (Capricorn Scientific) and 1% penicillin-streptomycin (Biowest). After incubation at 37° C. in 5% CO2 overnight, serially diluted compounds were added to the cells for 7 hours. In parallel, HEK293T cells were incubated with the test compounds alone for 30 minutes, washed twice with fresh medium, and then cultured for an additional 6.5 hours. Finally, 50 μl of cell culture medium was mixed with 30 μl of Bright-Glo Luciferase Assay System reagent (Promega) in white 96-well plates and luminescence was read in a Spark® spectrophotometer (TECAN, Grodig).

As for `CCCCCCCCCCCCN(CCCCCCCCCCCC)CCCCCNC(=O)C12CC3CC(C(=O)NCCCCCN(CCCCCCCCCCCC)CCCCCCCCCCCC)(C1)CC(C(=O)NCCCCCN(CCCCCCCCCCCC)CCCCCCCCCCCC)(C3)C2` [4d], the “toxicity of particles formed by the lipidoid (in words)” value in the series with U2OS is recorded as “non-toxic”. For the same molecule, the 50% effective concentration (EC50) on STING protein amounted to 2 ± 0.36 nM.
